Laboratory results: patent US9113629B2, “4-amino-6-(4-substituted-phenyl)-picolinates and 6-amino-2-(4-substituted-phenyl)-pyrimidine-4-carboxylates and their use as herbicides” (DOW AGROSCIENCES LLC, priority 2013, dated 2015)

Experiments:
Format in all cases: in vivo
[1] = tested on: AVEFA: wild oats (Avena fatua); experiment: Pre-emergent Test I herbicidal activity; conditions: pre-emergence, 336 h, read-out: Visual Growth Reduction (%) 14 Days After Application, AVEFA
Experimental: (§1) Pre-emergent Test I Seeds of test species were planted into round plastic pots (5-inch diameter) containing sandy loam soil. After planting, all pots were sub-irrigated 16 h prior to compound application. Compounds were dissolved in a 97:3 v/v (volume/volume) mixture of acetone and dimethyl sulfoxide (DMSO) and diluted to the appropriate concentration in a final application solution containing water, acetone, isopropanol, DMSO and Agri-dex (crop oil concentrate) in a 59:23:15:1.0:1.5 v/v ratio and 0.02% w/v (weight/volume) of Triton X-155 to obtain the spray solution containing the highest application rate. Additional application rates were obtained by serial dilution of the high rate solution with the above application solution. Formulated compound (2.7 mL) was applied pipetted evenly over the soil surface followed by incorporation with water (15 mL). Following treatment, pots were returned to the greenhouse for the duration of the experiment. The greenhouse was programmed for an approximate 15 h photoperiod which was maintained at about 23-29° C. during the day and 22-28° C. during the night. Nutrients and water were added on a regular basis through surface irrigation and supplemental lighting was provided with overhead metal halide 1000-Watt lamps as necessary. Herbicidal effect ratings were obtained 14 days after treatment. All evaluations were made relative to appropriate controls on a scale of 0 to 100 where 0 represents no herbicidal effect and 100 represents plant death or lack of emergence from the soil.

[2] = tested on: ECHCG: barnyardgrass (Echinochloa crus-galli); experiment: Pre-emergent Test I herbicidal activity; conditions: pre-emergence, 336 h, read-out: Visual Growth Reduction (%) 14 Days After Application, ECHCG
Experimental: as §1

[3] = tested on: HELAN: sunflower (Helianthus annuus); experiment: Pre-emergent Test I herbicidal activity; conditions: pre-emergence, 336 h, read-out: Visual Growth Reduction (%) 14 Days After Application, HELAN
Experimental: as §1

[4] = tested on: IPOHE: ivyleaf morningglory (Ipomoea hederecea); experiment: Pre-emergent Test I herbicidal activity; conditions: pre-emergence, 336 h, read-out: Visual Growth Reduction (%) 14 Days After Application, IPOHE
Experimental: as §1

[5] = tested on: SETFA: giant foxtail (Setaria faberi); experiment: Pre-emergent Test I herbicidal activity; conditions: pre-emergence, 336 h, 3.96 kg ai/ha, read-out: Visual Growth Reduction (%) 14 Days After Application, SETFA
Experimental: as §1

[6] = tested on: ALOMY: black-grass (Alopecurus myosuroides); experiment: Post-emergent Test III, herbicidal activity in wheat and barley; conditions: for pest or weed control at 35 g/ha / pest or weed control at 70 g/ha / pest or weed control at 140 g/ha: Alopecurus myosuroides, post-emergence, 504 h, read-out: Visual Growth Reduction (%) 21 Days After Application ALOMY; for pest or weed control at 35 g/ha: 35 g ai/ha; for pest or weed control at 70 g/ha: 70 g ai/ha; for pest or weed control at 140 g/ha: 140 g ai/ha; for GR50 ALOMY / GR80 ALOMY: probit analysis, 21 days after application; for GR50 ALOMY: dose for growth reduction of 50 percent; for GR80 ALOMY: dose for growth reduction of 80 percent
How it was run: (§2)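 GR20, GR50, GR80 and GR90 come from probit analysis of visual injury scores (0 = none, 100 = complete kill) taken 21 d after treatment. Foliar application was by track sprayer delivering 187 L/ha at five rates, from high down to 1/16×, onto greenhouse plants at the 2–3 leaf stage, with solvent-blank controls.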

LAMSS = experiment: as above; conditions: for pest or weed control at 35 g/ha / pest or weed control at 70 g/ha / pest or weed control at 140 g/ha: post-emergence, 504 h, read-out: Visual Growth Reduction (%) 21 Days After Application LAMSS; for pest or weed control at 35 g/ha: 35 g ai/ha; for pest or weed control at 70 g/ha: 70 g ai/ha; for pest or weed control at 140 g/ha: 140 g ai/ha; for GR50 LAMSS / GR80 LAMSS: probit analysis, 21 days after application; for GR50 LAMSS: dose for growth reduction of 50 percent; for GR80 LAMSS: dose for growth reduction of 80 percent
How it was run: as §2

[7] = tested on: AMARE: redroot pigwseed (Amaranthus retroflexus); experiment: Pre-emergent Test I herbicidal activity; conditions: pre-emergence, 336 h, read-out: Visual Growth Reduction (%) 14 Days After Application, AMARE
Experimental: as §1

[8] = tested on: VERPE: bird's-eye speedwell (veronica persica); experiment: Post-emergent Test III, herbicidal activity in wheat and barley; conditions: for pest or weed control at 35 g/ha / pest or weed control at 70 g/ha / pest or weed control at 140 g/ha: Veronica persica, post-emergence, 504 h, read-out: Visual Growth Reduction (%) 21 Days After Application VERPE; for pest or weed control at 35 g/ha: 35 g ai/ha; for pest or weed control at 70 g/ha: 70 g ai/ha; for pest or weed control at 140 g/ha: 140 g ai/ha; for GR50 VERPE / GR80 VERPE: probit analysis, 21 days after application; for GR50 VERPE: dose for growth reduction of 50 percent; for GR80 VERPE: dose for growth reduction of 80 percent
How it was run: as §2

SMILES | pest or weed control at 35 g/ha [6] | pest or weed control at 70 g/ha [6] | pest or weed control at 140 g/ha [6] | GR50 ALOMY [6] | GR80 ALOMY [6] | pest or weed control at 35 g/ha (LAMSS) | pest or weed control at 70 g/ha (LAMSS) | pest or weed control at 140 g/ha (LAMSS) | GR50 LAMSS (LAMSS) | GR80 LAMSS (LAMSS) | pest or weed control at 35 g/ha [8] | pest or weed control at 70 g/ha [8] | pest or weed control at 140 g/ha [8] | GR50 VERPE [8] | GR80 VERPE [8] | other results
Nc1c(F)c(-c2ccc(Br)c(F)c2F)nc(C(=O)O)c1Cl [Compound 147] | 60 to 74% | 85 to 94% | 85 to 94% | 20 g ai/ha | 47 g ai/ha | 85 to 94% | 85 to 94% | 85 to 94% | 1 g ai/ha | 8 g ai/ha | – | – | – | – | – | pest or weed control at 3960 g/ha ([1]; 3.96 kg ai/ha): 95 to 100%; pest or weed control at 3960 g/ha ([2]; 3.96 kg ai/ha): 95 to 100%; pest or weed control at 3960 g/ha ([3]; 3.96 kg ai/ha): 95 to 100%; pest or weed control at 3960 g/ha ([4]; 3.96 kg ai/ha): 95 to 100%; pest or weed control at 3960 g/ha [5]: 95 to 100%
COC(=O)c1nc(-c2ccc(I)cc2)c(F)c(N)c1Cl [Compound 118, Methyl 4-amino-6-(4-iodophenyl)-3-chloro-5-fluoropicolinate] | 60 to 74% | 75 to 84% | 85 to 94% | 25 g ai/ha | 60 g ai/ha | 95 to 100% | 95 to 100% | 95 to 100% | 1 g ai/ha | 0 g ai/ha | 85 to 94% | 85 to 94% | 95 to 100% | 5 g ai/ha | 17 g ai/ha | pest or weed control at 2320 g/ha ([7]; 2.32 kg ai/ha): 95 to 100%; pest or weed control at 2320 g/ha ([1]; 2.32 kg ai/ha): 95 to 100%; pest or weed control at 2320 g/ha ([2]; 2.32 kg ai/ha): 95 to 100%; pest or weed control at 2320 g/ha ([3]; 2.32 kg ai/ha): 95 to 100%; pest or weed control at 2320 g/ha ([4]; 2.32 kg ai/ha): 95 to 100%
COC(=O)c1nc(-c2ccc(C#N)cc2)c(F)c(N)c1Cl [Compound 142] | 0 to 29% | 0 to 29% | 0 to 29% | >140 g ai/ha | >140 g ai/ha | 85 to 94% | 85 to 94% | 85 to 94% | 0 g ai/ha | 5 g ai/ha | 75 to 84% | 85 to 94% | 85 to 94% | 5 g ai/ha | 40 g ai/ha | pest or weed control at 3840 g/ha ([7]; 3.84 kg ai/ha): 95 to 100%; pest or weed control at 3840 g/ha ([1]; 3.84 kg ai/ha): 95 to 100%; pest or weed control at 3840 g/ha ([2]; 3.84 kg ai/ha): 30 to 44%; pest or weed control at 3840 g/ha ([3]; 3.84 kg ai/ha): 95 to 100%; pest or weed control at 3840 g/ha ([4]; 3.84 kg ai/ha): 95 to 100%
